What was measured:
Galectin-1 = Galectin-1 (Homo sapiens (Human), UniProt P09382); assay: Fluorescence anisotropy assay, compound as inhibitor of galectin / fluorescein tagged saccharide probe interaction; assay type: binding
Protocol: (§1) The affinity of Example 1-32 for galectins were determined by a fluorescence anisotropy assay where the compound was used as an inhibitor of the interaction between galectin and a fluorescein tagged saccharide probe as described Sörme, P., Kahl-Knutsson, B., Huflejt, M., Nilsson, U. J., and Leffler H. (2004) Fluorescence polarization as an analytical tool to evaluate galectin-ligand interactions. Anal. Biochem. 334: 36-47, (Sörme et al., 2004) and Monovalent interactions of Galectin-1 By Salomonsson, Emma; Larumbe, Amaia; Tejler, Johan; Tullberg, Erik; Rydberg, Hanna; Sundin, Anders; Khabut, Areej; Frejd, Torbjorn; Lobsanov, Yuri D.; Rini, James M.; et al, From Biochemistry (2010), 49(44), 9518-9532, (Salonmonsson et al., 2010).

Galectin-3 = Galectin-3 (Homo sapiens (Human), UniProt P17931); assay: as above; assay type: binding
Protocol: as §1

Galectin-3, sequence (P17931 whole entry): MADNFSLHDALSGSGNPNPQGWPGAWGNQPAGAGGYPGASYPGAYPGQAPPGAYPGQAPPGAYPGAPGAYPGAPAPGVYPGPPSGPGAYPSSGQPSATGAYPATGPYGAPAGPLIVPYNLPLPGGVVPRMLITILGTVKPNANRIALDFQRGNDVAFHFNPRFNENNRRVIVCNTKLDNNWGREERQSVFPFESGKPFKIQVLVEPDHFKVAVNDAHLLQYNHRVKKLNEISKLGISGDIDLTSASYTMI

`OC[C@H]1O[C@H](Sc2cncc(Br)c2)[C@H](O)[C@@H](n2cc(-c3ccsc3)nn2)[C@H]1O` [Example 3, 5-Bromopyridin-3-yl 3-deoxy-3-[4-(3-thiophenyl)-1H-1,2,3-triazol-1-yl]-1-thio-α-D-galactopyranoside] showed a Kd (Galectin-1) of 680 nM and a Kd (Galectin-3) of 1700 nM.
`N#Cc1c(Cl)cc(S[C@H]2OC(CO)[C@H](O)[C@H](n3cc(-c4nccs4)nn3)C2O)cc1Cl` (stereo partly drawn) [Example 16, 2,6-Dichloro-bensonitril-4-yl 3-deoxy-3-[4-(2-thiazolyl)-1H-1,2,3-triazol-1-yl]-1-thio-α-D-galactopyranoside] showed a Kd (Galectin-1) of 800 nM and a Kd (Galectin-3) of 12000 nM.
`OCC1O[C@H](Sc2cncc(Br)c2)C(O)[C@@H](n2cc(-c3nccs3)nn2)[C@H]1O` (stereo partly drawn) [Example 20, 5-Bromopyrdin-3-yl 3-deoxy-3-[4-(2-thiazolyl)-1H-1,2,3-triazol-1-yl]-1-thio-α-D-galactopyranoside] showed a Kd (Galectin-1) of 550 nM and a Kd (Galectin-3) of 4600 nM.
`OC[C@H]1O[C@H](Sc2ccc(F)c(Br)c2)[C@H](O)[C@@H](n2cc(-c3nccs3)nn2)[C@H]1O` [Example 27, 3-Bromo-4-fluoro-phenyl 3-deoxy-3-[4-(2-thiazolyl)-1H-1,2,3-triazol-1-yl]-1-thio-α-D-galactopyranoside] showed a Kd (Galectin-1) of 490 nM and a Kd (Galectin-3) of 4700 nM.
For `Cc1nc(-c2cn([C@@H]3[C@@H](O)[C@@H](Sc4cncc(Br)c4)O[C@H](CO)[C@@H]3O)nn2)cs1` [Example 15, 5-Bromopyridin-3-yl 3-deoxy-3-[4-(2-methyl-4-thiazolyl)-1H-1,2,3-triazol-1-yl]-1-thio-α-D-galactopyranoside], the Kd (Galectin-1) was 640 nM and the Kd (Galectin-3) was 3200 nM.
`OC[C@H]1O[C@H](Sc2ccc(Cl)c(Cl)c2)[C@H](O)[C@@H](n2cc(-c3ccc(F)s3)nn2)[C@H]1O` [Example 9, 3,4-Dichlorophenyl 3-deoxy-3-[4-(5-fluoro-2-thiophenyl)-1H-1,2,3-triazol-1-yl]-1-thio-α-D-galactopyranoside] was tested, and the Kd (Galectin-1) was 550 nM and the Kd (Galectin-3) was 970 nM.
With `OCC1O[C@H](Sc2ccc(Cl)c(Cl)c2)C(O)[C@@H](n2cc(-c3nc(Br)cs3)nn2)[C@H]1O` (stereo partly drawn) [Example 29, 3,4-dichlorophenyl 3-deoxy-3-[4-(4-bromo-2-thiazol-2-yl)-1H-1,2,3-triazol-1-yl]-1-thio-α-D-galactopyranoside] the Kd (Galectin-1) was 150 nM and the Kd (Galectin-3) was 810 nM.
For `OC[C@H]1O[C@H](Sc2ccc(Cl)c(Cl)c2)[C@H](O)[C@@H](n2cc(-c3nc(Cl)cs3)nn2)[C@H]1O` [Example 31, 3,4-Dichlorophenyl 3-deoxy-3-[4-(4-chloro-thiazol-2-yl)-1H-1,2,3-triazol-1-yl]-1-thio-α-D-galactopyranoside], the Kd (Galectin-1) was 120 nM and the Kd (Galectin-3) was 460 nM.
`OC[C@H]1O[C@H](Sc2cncc(Br)c2)[C@H](O)[C@@H](n2cc(-c3cccs3)nn2)[C@H]1O` [Example 7, 5-Bromopyridin-3-yl 3-deoxy-3-[4-(2-thiophenyl)-1H-1,2,3-triazol-1-yl]-1-thio-α-D-galactopyranoside] gave a Kd (Galectin-1) of 450 nM and a Kd (Galectin-3) of 1250 nM.
`N#Cc1ccc(S[C@H]2OC(CO)[C@H](O)[C@H](n3cc(-c4cscn4)nn3)C2O)cc1Cl` (stereo partly drawn) [Example 13, 2-Chloro-benzonitril-4-yl 3-deoxy-3-[4-(4-thiazolyl)-1H-1,2,3-triazol-1-yl]-1-thio-α-D-galactopyranoside] showed a Kd (Galectin-1) of 370 nM and a Kd (Galectin-3) of 6100 nM.
`OC[C@H]1O[C@H](Sc2ccc(Cl)c(Cl)c2)[C@H](O)[C@@H](n2cc(-c3nc(C(F)(F)F)cs3)nn2)[C@H]1O` [Example 32, 3,4-Dichlorophenyl 3-deoxy-3-[4-(4-trifluoromethyl-thiazol-2-yl)-1H-1,2,3-triazol-1-yl]-1-thio-α-D-galactopyranoside] showed a Kd (Galectin-1) of 790 nM and a Kd (Galectin-3) of 210 nM.
In the case of `OC[C@H]1O[C@H](Sc2cc(Cl)cc(Cl)c2)[C@H](O)[C@@H](n2cc(-c3nccs3)nn2)[C@H]1O` [Example 24, 3,5-Dichlorophenyl 3-deoxy-3-[4-(2-thiazolyl)-1H-1,2,3-triazol-1-yl]-1-thio-α-D-galactopyranoside], the Kd (Galectin-1) is reported as 340 nM and the Kd (Galectin-3) is reported as 1600 nM.
`OC[C@H]1O[C@H](Sc2cc(Cl)c(Cl)c(Cl)c2)[C@H](O)[C@@H](n2cc(-c3nncs3)nn2)[C@H]1O` [Example 19, 3,4,5-Trichlorophenyl 3-deoxy-3-[4-(1,3,4-thiadiazol-2-yl)-1H-1,2,3-triazol-1-yl]-1-thio-α-D-galactopyranoside] showed a Kd (Galectin-1) of 350 nM and a Kd (Galectin-3) of 4400 nM.
`OC[C@H]1O[C@H](Sc2cc(Cl)c(Cl)c(Cl)c2)[C@H](O)[C@@H](n2cc(-c3nccs3)nn2)[C@H]1O` [Example 17, 3,4,5-Trichlorophenyl 3-deoxy-3-[4-(2-thiazolyl)-1H-1,2,3-triazol-1-yl]-1-thio-α-D-galactopyranoside] was tested, and the Kd (Galectin-1) was 610 nM and the Kd (Galectin-3) was 1300 nM.
`OC[C@H]1O[C@H](Sc2cnc(C(F)(F)F)c(Br)c2)[C@H](O)[C@@H](n2cc(-c3cscn3)nn2)[C@H]1O` [Example 11, 5-Bromo-6-trifluoromethyl-pyridin-3-yl 3-deoxy-3-[4-(4-thiazolyl)-1H-1,2,3-triazol-1-yl]-1-thio-α-D-galactopyranoside] was tested, and the Kd (Galectin-1) was 170 nM and the Kd (Galectin-3) was 2900 nM.
`OC[C@H]1O[C@H](Sc2ccc(Cl)c(Br)c2)[C@H](O)[C@@H](n2cc(-c3nccs3)nn2)[C@H]1O` [Example 25, 3-Bromo-4-chlorophenyl 3-deoxy-3-[4-(2-thiazolyl)-1H-1,2,3-triazol-1-yl]-1-thio-α-D-galactopyranoside] showed a Kd (Galectin-1) of 440 nM and a Kd (Galectin-3) of 4400 nM.
`OC[C@H]1O[C@H](Sc2ccc(Cl)c(Cl)c2)[C@H](O)[C@@H](n2cc(-c3cscn3)nn2)[C@H]1O` [Example 12, 3,4-Dichlorophenyl 3-deoxy-3-[4-(4-thiazolyl)-1H-1,2,3-triazol-1-yl]-1-thio-α-D-galactopyranoside] gave a Kd (Galectin-1) of 310 nM and a Kd (Galectin-3) of 5300 nM.
`OC[C@H]1O[C@H](Sc2cc(Cl)ccc2Cl)[C@H](O)[C@@H](n2cc(-c3nccs3)nn2)[C@H]1O` [Example 28, 2,5-Dichlorophenyl 3-deoxy-3-[4-(2-thiazolyl)-1H-1,2,3-triazol-1-yl]-1-thio-α-D-galactopyranoside] gave a Kd (Galectin-1) of 910 nM and a Kd (Galectin-3) of 8200 nM.
In the case of `OC[C@H]1O[C@H](Sc2cncc(Br)c2)[C@H](O)[C@@H](n2cc(-c3cscn3)nn2)[C@H]1O` [Example 10, 5-Bromopyridin-3-yl 3-deoxy-3-[4-(4-thiazolyl)-1H-1,2,3-triazol-1-yl]-1-thio-α-D-galactopyranoside], the Kd (Galectin-1) is reported as 250 nM and the Kd (Galectin-3) is reported as 4100 nM.
Work on `OC[C@H]1O[C@H](Sc2cncc(Cl)c2)[C@H](O)[C@@H](n2cc(-c3nccs3)nn2)[C@H]1O` [Example 21, 5-Chloropyridin-3-yl 3-deoxy-3-[4-(2-thiazolyl)-1H-1,2,3-triazol-1-yl]-1-thio-α-D-galactopyranoside] yielded a Kd (Galectin-1) of 220 nM and a Kd (Galectin-3) of 1800 nM.
In the case of `OC[C@H]1O[C@H](Sc2ccc(Cl)c(Cl)c2)[C@H](O)[C@@H](n2cc(-c3ncc(F)s3)nn2)[C@H]1O` [Example 30, 3,4-Dichlorophenyl 3-deoxy-3-[4-(5-fluoro-thiazol-2-yl)-1H-1,2,3-triazol-1-yl]-1-thio-α-D-galactopyranoside], the Kd (Galectin-1) is reported as 400 nM and the Kd (Galectin-3) is reported as 1600 nM.
With `N#Cc1ncc(S[C@H]2O[C@H](CO)[C@H](O)[C@H](n3cc(-c4nccs4)nn3)[C@H]2O)cc1Cl` [Example 23, 5-Chloro-6-cyano-pyridine-3-yl 3-deoxy-3-[4-(2-thiazolyl)-1H-1,2,3-triazol-1-yl]-1-thio-α-D-galactopyranoside] the Kd (Galectin-1) was 440 nM and the Kd (Galectin-3) was 4400 nM.
For `N#Cc1cc(F)c(S[C@H]2OC(CO)[C@H](O)[C@H](n3cc(-c4ccsc4)nn3)C2O)cc1Cl` (stereo partly drawn) [Example 2, 2-Chloro-5-fluoro-benzonitril-4-yl 3-deoxy-3-[4-(3-thiophenyl)-1H-1,2,3-triazol-1-yl]-1-thio-α-D-galactopyranoside], the Kd (Galectin-1) was 190 nM and the Kd (Galectin-3) was 1950 nM.
Compound `OC[C@H]1O[C@H](Sc2cnc(C(F)(F)F)c(Br)c2)[C@H](O)[C@@H](n2cc(-c3nccs3)nn2)[C@H]1O` [Example 26, 5-Bromo-6-trifluoromethyl-pyridine-3-yl 3-deoxy-3-[4-(2-thiazolyl)-1H-1,2,3-triazol-1-yl]-1-thio-α-D-galactopyranoside] has a Kd (Galectin-1) of 310 nM and a Kd (Galectin-3) of 2000 nM.
For `N#Cc1ncc(Br)cc1S[C@H]1O[C@H](CO)[C@H](O)[C@H](n2cc(-c3nccs3)nn2)[C@H]1O` [Example 22, 5-Bromo-2-cyano-pyridine-3-yl 3-deoxy-3-[4-(2-thiazolyl)-1H-1,2,3-triazol-1-yl]-1-thio-α-D-galactopyranoside], the Kd (Galectin-1) was 200 nM and the Kd (Galectin-3) was 1200 nM.
Work on `OC[C@H]1O[C@H](Sc2ccc(Cl)c(Cl)c2)[C@H](O)[C@@H](n2cc(-c3ccc(F)cn3)nn2)[C@H]1O` [Example 6, 3,4-Dichlorophenyl 3-deoxy-3-[4-(5-fluoro-2-pyridyl)-1H-1,2,3-triazol-1-yl]-1-thio-α-D-galactopyranoside] yielded a Kd (Galectin-1) of 240 nM and a Kd (Galectin-3) of 690 nM.
Compound `OC[C@H]1O[C@H](Sc2cc(Cl)c(F)c(Cl)c2)[C@H](O)[C@@H](n2cc(-c3cccs3)nn2)[C@H]1O` [Example 8, 3,5-Dichloro-4-fluoro-phenyl 3-deoxy-3-[4-(2-thiophenyl)-1H-1,2,3-triazol-1-yl]-1-thio-α-D-galactopyranoside] has a Kd (Galectin-1) of 920 nM and a Kd (Galectin-3) of 2300 nM.
Work on `OC[C@H]1O[C@H](Sc2ccc(Cl)c(Cl)c2)[C@H](O)[C@@H](n2cc(-c3nccs3)nn2)[C@H]1O` [Example 18, 3,4-Dichlorophenyl 3-deoxy-3-[4-(2-thiazolyl)-1H-1,2,3-triazol-1-yl]-1-thio-α-D-galactopyranoside] yielded a Kd (Galectin-1) of 240 nM and a Kd (Galectin-3) of 4100 nM.
